Patent US10172796B2, “Use of umirolimus and its derivatives for treating cancer” (Manli International Ltd., priority 2012, dated 2019)

Key:
AZ-521/gastric = experiment: CellTiter-Glo luminescent cell viability assay, AZ-521; type: cell-based, human; conditions: 72 hours of in vitro culture
Procedure: (§1) Umirolimus was added to cultured cell lines derived from 9 types of human cancer. After 72 hours of in vitro culture, the 50% inhibitory concentration (IC50) of umirolimus on cell growth was measured using the CellTiter-Glo luminescent cell viability assay.

SW620/colorectal = experiment: CellTiter-Glo luminescent cell viability assay, SW620; type: cell-based, human; conditions: 72 hours of in vitro culture
Procedure: as §1

NCI-H460/lung = experiment: CellTiter-Glo luminescent cell viability assay, NCI-H460; type: cell-based, human; conditions: 72 hours of in vitro culture
Procedure: as §1

MDA-MB-231/breast = experiment: CellTiter-Glo luminescent cell viability assay, MDA-MB-231; type: cell-based, human; conditions: 72 hours of in vitro culture
Procedure: as §1

A2780/ovarian = experiment: CellTiter-Glo luminescent cell viability assay, A2780; type: cell-based, human; conditions: 72 hours of in vitro culture
Procedure: as §1

[1] = test system: 10 human cancer cell lines; experiment: Inhibition of cancer cell growth by umirolimus as compared to sirolimus and everolimus; type: cell-based; conditions: 8 out of the 10 cancer cell lines tested: A2780, SK-HEP-1, DLD-1, SNU-16, BxPC-3, 786-O, SK-MES-1, AZ-521; FIG. 1
Procedure: as §1
The IC50 for 3 “limus” drugs for inhibiting the growth of 10 human cancer cell is lines was measured using the CellTiter-Glo luminescent cell viability assay as described in Example 1. The ten exemplary human cancer cell lines tested were SK-MES-1 (lung cancer), BxPC-3 (pancreatic cancer), AZ-521 (gastric cancer), SNU-16 (gastric cancer), SK-HEP-1 (liver cancer), A2780 (ovarian cancer), MDA-MB-231 (breast cancer), DLD-1 (colorectal cancer), DU-145 (prostate cancer) and 786-O (kidney cancer).

BxPC-3/pancreatic = experiment: CellTiter-Glo luminescent cell viability assay, BxPC-3; type: cell-based, human; conditions: 72 hours of in vitro culture
Procedure: as §1

SK-HEP-1/liver = experiment: CellTiter-Glo luminescent cell viability assay, SK-HEP-1; type: cell-based, human; conditions: 72 hours of in vitro culture
Procedure: as §1

SNU-16/gastric = experiment: CellTiter-Glo luminescent cell viability assay, SNU-16; type: cell-based, human; conditions: 72 hours of in vitro culture
Procedure: as §1

[2] = See J. Med. Chem. 2000, 43:2922-2928; cited from earlier work
[3] = test system: RPMI-8226/multiple myeloma; experiment: CellTiter-Glo luminescent cell viability assay, RPMI-8226; type: cell-based, human; conditions: 72 hours of in vitro culture
Procedure: as §1

[4] = test system: 11 cell lines from 9 types of human cancers; experiment: CellTiter-Glo cell viability assay, summary over the cell line panel; type: cell-based; conditions: summary for all 11 cell lines of Table 1
Procedure: as §1

[5] = test system: K562/chronic myelogenous leukemia; experiment: CellTiter-Glo luminescent cell viability assay, K562; type: cell-based, human; conditions: 72 hours of in vitro culture
Procedure: as §1

SK-MES-1/lung = experiment: CellTiter-Glo luminescent cell viability assay, SK-MES-1; type: cell-based, human; conditions: 72 hours of in vitro culture
Procedure: as §1

IC50 (SW620/colorectal): 8.33 µM
IC50 (NCI-H460/lung): 7.07 µM
IC50 (MDA-MB-231/breast): 9.52 µM
IC50 (A2780/ovarian): 7.31 µM
IC50 (BxPC-3/pancreatic): 3.07 µM
IC50 (SK-HEP-1/liver): 7.81 µM
IC50 (SNU-16/gastric): 1.14 µM
IC50 [3]: 6.8 µM
IC50 [4]: < 10 µM
IC50 [5]: 7.97 µM
IC50 (SK-MES-1/lung): 8.24 µM
Compound: CCOCCO[C@@H]1CC[C@@H](C[C@@H](C)[C@@H]2CC(=O)[C@H](C)/C=C(\C)[C@@H](O)[C@@H](OC)C(=O)[C@H](C)C[C@H](C)/C=C/C=C/C=C(\C)[C@@H](OC)C[C@@H]3CC[C@@H](C)[C@@](O)(O3)C(=O)C(=O)N3CCCC[C@H]3C(=O)O2)C[C@H]1OC [umirolimus]
IC50 (AZ-521/gastric): 4.23 µM
Maximum inhibition (AZ-521/gastric): 99.88%
Maximum inhibition (SW620/colorectal): 55.69%
Maximum inhibition (NCI-H460/lung): 88.99%
Maximum inhibition (MDA-MB-231/breast): 99.23%
Maximum inhibition (A2780/ovarian): 100.19%
IC50 compared to sirolimus and everolimus [1]: superior to that of sirolimus and everolimus
Maximum inhibition (BxPC-3/pancreatic): 77.24%
Maximum inhibition (SK-HEP-1/liver): 99.97%
Maximum inhibition (SNU-16/gastric): 99.75%
lipophilicity as compared to sirolimus and everolimus [2]: 10 times
Maximum inhibition [3]: 99.26%
Maximum inhibition [5]: 98.49%
Maximum inhibition (SK-MES-1/lung): 96.57%
